Values quoted from earlier work as cited in paper PMC5657425 (Pediatric blood & cancer, 2016).

Experiments:
[1] = system: well-differentiated or dedifferentiated liposarcoma
[2] = system: PPTP solid tumor xenografts
Rh18 xenograft = conditions: single agent

Compound: CCOc1cc(C(C)(C)C)ccc1C1=N[C@@](C)(c2ccc(Cl)cc2)[C@@](C)(c2ccc(Cl)cc2)N1C(=O)N1CCN(CCCS(C)(=O)=O)CC1 [RG7112]
- adverse effect in phase 1 and 2 evaluations [1]: thrombocytopenia
- stable disease among 20 patients treated ([1]; phase 2, well-differentiated or dedifferentiated liposarcoma): 14
- response of the osteosarcoma panel ([2]; osteosarcoma panel): no response
- objective regressions in twenty six solid tumor models with wild-type TP53 ([2]; prior PPTP testing): five

Compound: COc1cc(C(=O)O)ccc1NC(=O)[C@@H]1N[C@@H](CC(C)(C)C)[C@](C#N)(c2ccc(Cl)cc2F)[C@H]1c1cccc(Cl)c1F [RG7388]
- response of Rh18 (Rh18 xenograft): unresponsive
